Laboratory results taken from patent publication US10793575B2, “Oxoisoquinoline derivatives” (CARNA BIOSCIENCES, INC., priority 2016, dated 2020).

System: OCI-Ly10 cells
Test: Proliferation-Inhibitory Test Against Diffuse Large-Cell B-Cell Lymphoma OCI-Ly10 Strain
Format: cell-based
Conditions: Homo sapiens, 96 hours, alamarBlue
Experimental: OCI-Ly10 cells were cultured in IMDM medium (Iscove's Modified Dulbecco's Medium, Manufactured by Thermo Fisher Scientific Inc., hereinafter “medium”) containing 20% Fetal bovine serum and 1% penicillin-streptomycin (Nacalai Tesque, Inc.) in a 5% CO2 incubator. OCI-Ly10 cells were seeded to 96-well plate (20000 cells/well), compounds diluted with medium were added with final concentrations of 0.9 nM to 30000 nM (Final DMSO concentration, 0.3%), incubated for 96 hours and alamorBlue reagent (Thermo Fisher Scientific Inc.) was added.

Compound	IC50 [µM]
Nc1nc(-c2cccc(-n3ccc4cc(C5CC5)cc(F)c4c3=O)c2CO)c2cc(-c3ccc(CN4CCC(O)CC4)cc3)[nH]c2n1 [Example 73, 2-[3-(2-amino-6-{4-[(4-hydroxypiperidin-1-yl)methyl)phenyl}-7H-pyrrolo[2,3-d]pyrimidin-4-yl)-2-(hydroxymethyl)phenyl]-6-cyclopropyl-8-fluoroisoquinolin-1(2H)-one]	0.011
COC1CCN(Cc2ccc(-c3cc4c(-c5cccc(-n6ccc7cc(C8CC8)cc(F)c7c6=O)c5CO)nc(N)nc4[nH]3)cc2)CC1 [Example 74, 2-[3-(2-amino-6-{4-[(4-methoxypiperidin-1-yl)methyl]phenyl}-7H-pyrrolo[2,3-d]pyrimidin-4-yl)-2-(hydroxymethyl)phenyl]-6-cyclopropyl-8-fluoroisoquinolin-1(2H)-one]	0.013
CC(=O)N1CCN(Cc2ccc(-c3cc4c(-c5cccc(-n6ccc7cc(C8CC8)cc(F)c7c6=O)c5CO)nc(N)nc4[nH]3)cc2)CC1 [Example 75, 2-[3-(6-{4-[(4-acetylpiperazin-1-yl)methyl]phenyl}-2-amino-7H-pyrrolo[2,3-d]pyrimidin-4-yl)-2-(hydroxymethyl)phenyl]-6-cyclopropyl-8-fluoroisoquinolin-1(2H)-one]	0.01
CC1CN(Cc2ccc(-c3cc4c(-c5cccc(-n6ccc7cc(C8CC8)cc(F)c7c6=O)c5CO)nc(N)nc4[nH]3)cc2)CC(C)O1 (stereo not shown) [Example 76, 2-[3-(2-amino-6-{4-[(2,6-dimethylmorpholino)methyl]phenyl}-7H-pyrrolo[2,3-d]pyrimidin-4-yl)-2-(hydroxymethyl)phenyl]-6-cyclopropyl-8-fluoroisoquinolin-1(2H)-one]	0.047
Nc1nc(-c2cccc(-n3ccc4cc(C5CC5)cc(F)c4c3=O)c2CO)c2cc(-c3ccc(CN4CCC(F)(F)CC4)cc3)[nH]c2n1 [Example 77, 2-[3-(2-amino-6-{4-[(4,4-difluoropiperidin-1-yl)methyl]phenyl}-7H-pyrrolo[2,3-d]pyrimidin-4-yl)-2-(hydroxymethyl)phenyl]-6-cyclopropyl-8-fluoroisoquinolin-1(2H)-one]	0.062
Cn1ccc(-c2cc3c(-c4cccc(-n5ccc6cc(C7CC7)cc(F)c6c5=O)c4CO)nc(N)nc3[nH]2)n1 [Example 78, 2-{3-[2-amino-6-(1-methyl-1H-pyrazol-3-yl)-7H-pyrrolo[2,3-d]pyrimidin-4-yl]-2-(hydroxymethyl)phenyl}-6-cyclopropyl-8-fluoroisoquinolin-1(2H)-one]	0.05
Nc1nc(-c2cccc(-n3ccc4cc(C5CC5)cc(F)c4c3=O)c2CO)c2cc(-c3ccc(CN4CCN(CC(F)(F)F)CC4)cc3)[nH]c2n1 [Example 79, 2-{3-[2-amino-6-(4-{[4-(2,2,2-trifluoroethyl)piperazin-1-yl]methyl}phenyl)-7H-pyrrolo[2,3-d]pyrimidin-4-yl]-2-(hydroxymethyl)phenyl}-6-cyclopropyl-8-fluoroisoquinolin-1(2H)-one]	0.03
CC1(C)CCCN(Cc2ccc(-c3cc4c(-c5cccc(-n6ccc7cc(C8CC8)cc(F)c7c6=O)c5CO)nc(N)nc4[nH]3)cc2)C1 [Example 80, 2-[3-(2-amino-6-{4-[(3,3-dimethylpiperidin-1-yl)methyl]phenyl}-7H-pyrrolo[2,3-d]pyrimidin-4-yl)-2-(hydroxymethyl)phenyl]-6-cyclopropyl-8-fluoroisoquinolin-1(2H)-one]	0.07
Nc1nc(-c2cccc(-n3ccc4cc(C5CC5)cc(F)c4c3=O)c2CO)c2cc(C3=CCSCC3)[nH]c2n1 [Example 82, 2-{3-[2-amino-6-(3,6-dihydro-2H-thiopyran-4-yl)-7H-pyrrolo[2,3-d]pyrimidin-4-yl]-2-(hydroxymethyl)phenyl}-6-cyclopropyl-8-fluoroisoquinolin-1(2H)-one]	0.024
CN(C)CC(=O)N1CC=C(c2cc3c(-c4cccc(-n5ccc6cc(C7CC7)cc(F)c6c5=O)c4CO)nc(N)nc3[nH]2)CC1 [Example 85, 2-[3-(2-amino-6-{1-[2-(dimethylamino)acetyl]-1,2,3,6-tetrahydropyridin-4-yl}-7H-pyrrolo[2,3-d]pyrimidin-4-yl)-2-(hydroxymethyl)phenyl]-6-cyclopropyl-8-fluoroisoquinolin-1(2H)-one]	0.024
Nc1nc(-c2cccc(-n3ccc4cc(C5CC5)cc(F)c4c3=O)c2CO)c2cc(C3=CCN(C(=O)CN4CCOCC4)CC3)[nH]c2n1 [Example 86, 2-(3-{2-amino-6-[1-(2-morpholinoacetyl)-1,2,3,6-tetrahydropyridin-4-yl]-7H-pyrrolo[2,3-d]pyrimidin-4-yl}-2-(hydroxymethyl)phenyl)-6-cyclopropyl-8-fluoroisoquinolin-1(2H)-one]	0.013
CC(C)S(=O)(=O)N1CC=C(c2cc3c(-c4cccc(-n5ccc6cc(C7CC7)cc(F)c6c5=O)c4CO)nc(N)nc3[nH]2)CC1 [Example 90, 2-(3-{2-amino-6-[1-(isopropylsulfonyl)-1,2,3,6-tetrahydropyridin-4-yl]-7H-pyrrolo[2,3-d]pyrimidin-4-yl}-2-(hydroxymethyl)phenyl)-6-cyclopropyl-8-fluoroisoquinolin-1(2H)-one]	0.013
Nc1nc(-c2cccc(-n3ccc4cc(C5CC5)cc(F)c4c3=O)c2CO)c2cc(C3=CCN(CC4CC4)CC3)[nH]c2n1 [Example 92, 2-(3-{2-amino-6-[1-(cyclopropylmethyl)-1,2,3,6-tetrahydropyridin-4-yl]-7H-pyrrolo[2,3-d]pyrimidin-4-yl}-2-(hydroxymethyl)phenyl)-6-cyclopropyl-8-fluoroisoquinolin-1(2H)-one]	0.061
